Consider four compounds from ChEMBL document CHEMBL1131831, “A rapid method to identify exo-protease inhibitors” (Bioorg Med Chem Lett, 1999).

In test [1] the target is Leukocyte elastase (Homo sapiens). As to the kind of experiment: Inhibition constant (Ki) against human leukocyte elastase.
Test [2] shares this target. As to the kind of experiment: Inhibition constant (Ki) when mixed with p-nitroanilide against human leukocyte elastase for the conversion of water-soluble compound to fluorescent oil-soluble compound.
In a further test the target is Trypsin (Sus scrofa, UniProt P00761). As to the kind of experiment: Inhibition constant (Ki) against trypsin enzyme for the conversion of water-soluble compound to fluorescent oil-soluble compound.
Trypsin, sequence (P00761 whole entry): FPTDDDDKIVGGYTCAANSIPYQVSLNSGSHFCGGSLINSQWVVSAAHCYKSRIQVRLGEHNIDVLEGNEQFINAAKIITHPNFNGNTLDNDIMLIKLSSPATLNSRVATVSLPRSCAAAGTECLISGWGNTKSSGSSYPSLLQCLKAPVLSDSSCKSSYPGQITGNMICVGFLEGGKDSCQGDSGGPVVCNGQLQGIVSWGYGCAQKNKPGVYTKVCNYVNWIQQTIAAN

Consider `CC(NC(=O)[C@H](C)NC(=O)c1cccc2c1Oc1c(C(=O)NC(C(=O)O)C(C)C)cccc1C2(C)C)C(=O)O` (single isomer, unassigned), for which the Ki in test [1] amounted to 86 µM; in test [2], 0.128 µM.

With `O=C1C=CC(=O)N1c1ccccc1`, the Ki on Trypsin was ~800 µM.

Regarding `CC(C)C(NC(=O)c1cccc2c1Oc1c(C(=O)N[C@H](C(=O)O)C(C)C)cccc1C2(C)C)C(=O)O` (single isomer, unassigned), the inhibitory constant (Ki) in test [1] worked out at 515 µM.

In turn, `CC(NC(=O)[C@H](C)NC(=O)c1cccc2c1Oc1c(C(=O)NC(C)C(=O)N[C@@H](C)C(=O)O)cccc1C2(C)C)C(=O)O` (single isomer, unassigned) showed a Ki in test [1] of 248 µM.
